From patent US4407799A, “2-Substituted-phenyl-1,3-perhydrothiazine-4-one” (priority 1980, dated 1983)

How the values were obtained:
[1] = tested on: duodenal peptic ulcer due to acetic acid; assay: Effect on peptic ulcer due to acetic acid (duodenal ulcer); assay type: in vivo, male rats; conditions: 100 mg/kg, oral, rats; for Ulcer coefficient: 3 times a day for 10 days from third day; for Rate of suppression of ulcer: 3 times a day for 10 days, versus control
Source text: The inventors of the present invention, taking into account of these situations, added to the above-mentioned method of evaluation the effect of accelerating the cure of the peptic ulcer by orally administering the present compound and a commercialized anti-peptic ulcer medicine, respectively to rats to which duodenal peptic ulcer due to acetic acid (refer to Okabe, 1971) considered to be most closely resembling to human peptic ulcer has been artificially formed.
Following the method of Okabe et al (refer to Amer. J. Dig. Dis., 16, […]), 6 groups (15 animals per group) of male rats weighing 240 to 260 g were subjected to laparotomy under ether anesthesia in which a metal circular frame was placed on the serosa at a distance of 5 to 7 mm from the duodenal pylorus, 0.06 ml of glacial acetic acid was poured into the frame. After 30 seconds, the liquid containing the acetic acid was removed and then the frame was removed. The test compound suspended in an aqueous 0.5% solution of carboxymethylcellulose was orally administered to the rat 3 times a day from the third day of the operation for consecutive 10 days. To the control group, only the solution of carboxymethylcellulose was administered. After the administration was over, the rats were sacrificed with ether, and their duodenum was removed to observe under a microscope for anatomy. The length and width of the thus-formed ulcer were measured and their product (expressed with mm^2) was recorded as the ulcer coefficient.
By the way, the above-mentioned experimental model has been highly evaluated internationally because the thus-formed ulcer is scarcely curable in nature and the histopathological change of the ulcer lesion closely resembles to that of human chronic ulcer as compared to the method of cautery-ulcer (refer to Skoryna, 1958) and the method of crumping-cortisone (refer to Umehara, 1965).

[2] = Acute toxicity test, oral; parameters: species or system Female ICR-mice; conditions: mouse, in vivo, mortality observed for a week, Litchfield-Wilcoxon
Experimental: Female ICR-mice of body weight of 20 to 24 g, 5 weeks after birth were used.
Eight animal per group were kept in a transparent polycage at room temperature of 23°±1° C., and RH of 60 to 70%.
After minutely pulverizing each one of the present compounds, the pulverized compound was suspended in an aqueous 5% sodium carboxymethylcellulose solution containing 20% of Tween-80. The aqueous suspension was forcibly orally administered by a metal stomach tube, the dose rate having been adjusted by changing the concentration of the present compound in the aqueous suspension.
In some mortal cases, the rat's spontaneous movement was lowered with the reduction of general tension and the rats died as they were.

[3] = tested on: peptic ulcer due to pyloric ligation; assay: Effect on peptic ulcer due to pyloric ligation; assay type: in vivo, male rats; conditions: 100 mg/kg, intraperitoneal, rats; for Ulcer coefficient: just after pyloric ligation, 15 hours; for Rate of suppression of ulcer: pyloric ligation, versus control
Experimental: Six groups (10 animals per group) of male rats weighing 180 to 200 g were subjected to ligation of their pyloruses under ether-anesthesia after fasting for 48 hours according to the method of Shay et al. (refer to Gastroenterology, 5, page 43 (1945)).
Just after subjecting to ligation, each of the present compound suspended in an aqueous physiological saline solution was intraperitoneally administered to each rat, the control being injected with an aqueous physiological saline solution. Then, after 15 hours of fasting without taking water, the rats were sacrificed with ether and their stomachs were removed to examine under a microscope for anatomy. The length and width of the thus-formed ulcer in the stomach were determined and expressed by the product (mm^2), and the total sum of the products was represented as the ulcer coefficient.

peptic ulcer = conditions: cited from earlier work

| SMILES | Ulcer coefficient [1] | Rate of suppression of ulcer [1] | LD50 at 168 h [2] | Ulcer coefficient [3] | Rate of suppression of ulcer [3] | Side effects (peptic ulcer) | Accelerating effect on ulcer-curing (peptic ulcer; commercialized medicine, background) |
| --- | --- | --- | --- | --- | --- | --- | --- |
| COc1cc(C2NC(=O)CCS2)cc(OC)c1OC (centres unmarked) [Compound 1, 2-(3,4,5-trimethoxyphenyl)-1,3-perhydrothiazine-4-one] | 2.5 mm^2 | 67.1% | 5400 mg/kg | 9.3 mm^2 | 74.9 |  |  |
| COc1ccc(C2NC(=O)CCS2)cc1OC (centres unmarked) [Compound 2, 2-(3,4-dimethoxyphenyl)-1,3-perhydrothiazine-4-one] | 2.0 mm^2 | 73.6% | > 8000 mg/kg | 1.9 mm^2 | 94.3 |  |  |
| COc1ccccc1C1NC(=O)CCS1 (centres unmarked) [Compound 3, 2-(2-methoxyphenyl)-1,3-perhydrothiazine-4-one] | 1.5 mm^2 | 80.2% | > 8000 mg/kg | 2.4 mm^2 | 93.5 |  |  |
| COc1ccc(C2NC(=O)CCS2)cc1 (centres unmarked) [Compound 4, 2-(4-methoxyphenyl)-1,3-perhydrothiazine-4-one] | 1.3 mm^2 | 82.8% | > 8000 mg/kg | 2.0 mm^2 | 94.5 |  |  |
| CC(C)=CCCC(C)=CCCC(C)=CCCC(=O)OCC=C(C)CCC=C(C)C [Positive control, 3,7dimethyl-2,6-octadienyl-5,9,13-trimethyl-4,8,12-tetradecatrienoate, reference compound] | 6.1 mm^2 | 20.0% |  | 32.5 mm^2 | 12.2 |  |  |
| CC1(C)[C@@H](OC(=O)CCC(=O)O)CC[C@]2(C)[C@H]3C(=O)C=C4[C@@H]5C[C@@](C)(C(=O)O)CC[C@]5(C)CC[C@@]4(C)[C@]3(C)CC[C@@H]12 [carbenoxolone] |  |  |  |  |  | aldosterone-like side effects to cause hypertension and weakening of muscular function | excellent accelerating effect on the ulcer-curing |
